For one data set, the target named is T1, human CRF1 receptor (Homo sapiens, UniProt P34998).
T1 construct: expressed in transfected cells; host or cells: CHO cells (membrane fraction)
T1 sequence (P34998 24-415): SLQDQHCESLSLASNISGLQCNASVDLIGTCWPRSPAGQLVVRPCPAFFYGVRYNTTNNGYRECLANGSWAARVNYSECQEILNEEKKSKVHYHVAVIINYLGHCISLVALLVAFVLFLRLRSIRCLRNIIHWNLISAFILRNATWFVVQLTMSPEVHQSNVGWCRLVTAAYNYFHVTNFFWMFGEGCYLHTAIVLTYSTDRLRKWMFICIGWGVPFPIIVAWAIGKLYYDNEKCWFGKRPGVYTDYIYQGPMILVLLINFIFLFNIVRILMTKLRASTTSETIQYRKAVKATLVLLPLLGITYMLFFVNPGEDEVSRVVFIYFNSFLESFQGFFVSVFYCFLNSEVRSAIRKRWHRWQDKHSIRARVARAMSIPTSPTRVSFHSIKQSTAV
The data set can be described thus: Measurement of CRF Binding Inhibitory Rate (receptor binding experiment with 125I-CRF). Particulars: human CRF1 receptor expressing CHO cellular membrane fraction, 50 pM 125I-CRF, room temperature 1.5 hr, 0.05 nM to 10 μM of compound; read-out: IC50 values (CRF binding inhibition).

This note sets out measurements from US8785460B2, “Tricyclic compounds and use thereof” (Takeda Pharmaceutical Company Limited, priority 2008, dated 2014).

SMILES strings stand for the structures.

As usually defined, the IC50 is the concentration at which inhibition is half-maximal. In general, melting point refers to the temperature of the solid-liquid transition. Turning to `Cc1cc(C#N)ccc1N1CCCn2c1nc1c(Cl)ccc(C(OCC(F)(F)F)C3CC3)c12` (centres unmarked) [Example 402, 4-{9-Chloro-6-[cyclopropyl(2,2,2-trifluoroethoxy)methyl]-3,4-dihydropyrimido[1,2-a]benzimidazol-1(2H)-yl}-3-methylbenzonitrile], the melting point lay within 207 to 209 °C. The concentration for half-maximal inhibition (IC50) on human CRF1 receptor was below 1 µM.

`CCOC(c1ccc(Cl)c2nc3n(c12)CCCN3c1ccc(Cl)cc1Cl)C1CC1` (centres unmarked) [Example 483, 9-Chloro-6-[cyclopropyl(ethoxy)methyl]-1-(2,4-dichlorophenyl)-1,2,3,4-tetrahydropyrimido[1,2-a]benzimidazole] came in with a melting point of 138 to 140 °C. The IC50 on human CRF1 receptor was below 1 µM.

As for `CCC(CC)c1ccc(Cl)c2nc3n(c12)CCN3c1ccc(Br)cc1Cl` [Example 12, 1-(4-Bromo-2-chlorophenyl)-8-chloro-5-(1-ethylpropyl)-2,3-dihydro-1H-imidazo[1,2-a]benzimidazole], the melting point is 165 to 168 °C. The IC50 on human CRF1 receptor was below 1 µM.

Molecule `CCCC(O)c1ccc(Cl)c2nc3n(c12)CCCN3c1ccc(Cl)cc1Cl` (centres unmarked) [Example 114, 1-[9-Chloro-1-(2,4-dichlorophenyl)-1,2,3,4-tetrahydropyrimido[1,2-a]benzimidazol-6-yl]butan-1-ol] returned a melting point of 220 to 221 °C. Further, the IC50 on human CRF1 receptor was below 1 µM.

On to `COC(c1ccc(Cl)c2nc3n(c12)CCCN3c1ccc(Cl)cc1Cl)C(C)C` (centres unmarked) [Example 235, 9-Chloro-1-(2,4-dichlorophenyl)-6-(1-methoxy-2-methylpropyl)-1,2,3,4-tetrahydropyrimido[1,2-a]benzimidazole], for which the melting point fell in the range of 162 to 164 °C. Moreover, the IC50 at human CRF1 receptor is below 1 µM.

In the case of `CCC(CC)c1ccc(Cl)c2nc3n(c12)CCCCN3c1ncc(C(F)(F)F)cc1Cl` [Example 63, 10-Chloro-1-[3-chloro-5-(trifluoromethyl)pyridin-2-yl]-7-(1-ethylpropyl)-2,3,4,5-tetrahydro-1H-[1,3]diazepino[1,2-a]benzimidazole], the melting point was in the range of 108 to 110 °C. For the same molecule, the IC50 at human CRF1 receptor was below 1 µM.

Turning to `Cc1nc(OC(C)C)nc(C)c1N1CCCn2c1nc1c(Cl)ccc(C(OC(F)F)C(F)(F)F)c12` (centres unmarked) [Example 211, 9-Chloro-6-[1-(difluoromethoxy)-2,2,2-trifluoroethyl]-1-[4,6-dimethyl-2-(1-methylethoxy)pyrimidin-5-yl]-1,2,3,4-tetrahydropyrimido[1,2-a]benzimidazole], the melting point is 227 to 230 °C. Also, on human CRF1 receptor, the IC50 was below 1 µM.

`COc1nc(C)c(N2CCCn3c2nc2c(Cl)ccc(C(OCC(F)(F)F)C4CC4)c23)c(C)n1` (centres unmarked) [Example 189, 9-Chloro-6-[cyclopropyl(2,2,2-trifluoroethoxy)methyl]-1-(2-methoxy-4,6-dimethylpyrimidin-5-yl)-1,2,3,4-tetrahydropyrimido[1,2-a]benzimidazole]: the melting point was 225 to 227 °C. Also, on human CRF1 receptor, the IC50 is below 1 µM.

`CCC(CC(C)=O)c1ccc(Cl)c2nc3n(c12)CCCN3c1ccc(Cl)cc1Cl` (centres unmarked) [Example 452, 4-[9-Chloro-1-(2,4-dichlorophenyl)-1,2,3,4-tetrahydropyrimido[1,2-a]benzimidazol-6-yl]hexan-2-one] had a melting point of 195 to 197 °C. For the same molecule, at human CRF1 receptor, the IC50 is below 1 µM.

Molecule `CCC(CC)c1ccc(Cl)c2nc3n(c12)CCCCN3c1ccc(C(N)=O)cc1C` [Example 48, 4-[10-Chloro-7-(1-ethylpropyl)-2,3,4,5-tetrahydro-1H-[1,3]diazepino[1,2-a]benzimidazol-1-yl]-3-methylbenzamide] yielded a melting point of 185 to 186 °C. For the same molecule, the IC50 at human CRF1 receptor is below 1 µM.

In turn, `CC(=O)OC(C)c1ccc(Cl)c2nc3n(c12)CCCN3c1ccc(Cl)cc1Cl` (centres unmarked) [Example 243, 1-[9-Chloro-1-(2,4-dichlorophenyl)-1,2,3,4-tetrahydropyrimido[1,2-a]benzimidazol-6-yl]ethyl acetate] registered a melting point of 204 to 206 °C. For the same molecule, the IC50 on human CRF1 receptor is below 1 µM.

The molecule `CCC(OC(C)=O)c1ccc(Cl)c2nc3n(c12)CCCN3c1ccc(OC)cc1Cl` (centres unmarked) [Example 260, 1-[9-Chloro-1-(2-chloro-4-methoxyphenyl)-1,2,3,4-tetrahydropyrimido[1,2-a]benzimidazol-6-yl]propyl acetate] had a melting point of 178 to 180 °C. At human CRF1 receptor, the IC50 is below 1 µM.

For `CCC(OC(=O)C1CC1)c1ccc(Cl)c2nc3n(c12)CCCN3c1ccc(Cl)cc1Cl` (centres unmarked) [Example 431, 1-[9-Chloro-1-(2,4-dichlorophenyl)-1,2,3,4-tetrahydropyrimido[1,2-a]benzimidazol-6-yl]propyl cyclopropanecarboxylate], the melting point was 159 to 161 °C. Besides, the IC50 on human CRF1 receptor was below 1 µM.

The molecule `CCC(NS(C)(=O)=O)c1ccc(Cl)c2nc3n(c12)CCCN3c1ccc(Cl)cc1Cl` (centres unmarked) [Example 373, N-{1-[9-Chloro-1-(2,4-dichlorophenyl)-1,2,3,4-tetrahydropyrimido[1,2-a]benzimidazol-6-yl]propyl}methanesulfonamide] had a melting point of 125 to 126 °C. On human CRF1 receptor, the IC50 was below 1 µM.

In turn, `CCC(CC)c1ccc(Cl)c2nc3n(c12)CCCCN3c1cccc2c1OC(F)(F)O2` [Example 54, 10-Chloro-1-(2,2-difluoro-1,3-benzodioxol-4-yl)-7-(1-ethylpropyl)-2,3,4,5-tetrahydro-1H-[1,3]diazepino[1,2-a]benzimidazole] yielded a melting point of 156 to 158 °C. Further, at human CRF1 receptor, the IC50 is below 1 µM.

In turn, `CCC(CC)c1ccc(Cl)c2nc3n(c12)CCCCN3c1cnc(C#N)cc1C` [Example 59, 5-[10-Chloro-7-(1-ethylpropyl)-2,3,4,5-tetrahydro-1H-[1,3]diazepino[1,2-a]benzimidazol-1-yl]-4-methylpyridine-2-carbonitrile] had a melting point of 177 to 178 °C. On human CRF1 receptor, the IC50 was below 1 µM.

`CCOc1nc(C)c(N2CCCn3c2nc2c(Cl)ccc(C(OC(F)F)C(F)(F)F)c23)c(C)n1` (centres unmarked) [Example 210, 9-Chloro-6-[1-(difluoromethoxy)-2,2,2-trifluoroethyl]-1-(2-ethoxy-4,6-dimethylpyrimidin-5-yl)-1,2,3,4-tetrahydropyrimido[1,2-a]benzimidazole] displayed a melting point of 218 to 220 °C. The IC50 at human CRF1 receptor is below 1 µM.

As to `CCN(CC)c1cccc2nc3n(c12)CCN(C)C3c1ccc(Cl)cc1Cl` (centres unmarked) [Example 506, 1-(2,4-Dichlorophenyl)-N,N-diethyl-2-methyl-1,2,3,4-tetrahydropyrazino[1,2-a]benzimidazol-6-amine], the melting point fell in the range of 186 to 187 °C. For the same molecule, the IC50 on human CRF1 receptor was below 1 µM.

Molecule `Cc1cc(Cl)cc(Cl)c1N1CCn2c1nc1cccc(C(O)(C3CC3)C3CC3)c12` [Example 428, Dicyclopropyl[1-(2,4-dichloro-6-methylphenyl)-2,3-dihydro-1H-imidazo[1,2-a]benzimidazol-5-yl]methanol] showed a melting point of 243 to 246 °C. At human CRF1 receptor, the IC50 was below 1 µM.

`OC(c1ccc(Cl)c2nc3n(c12)CCCN3c1ccc(Cl)cc1Cl)C1CC1` (centres unmarked) [Example 113, [9-Chloro-1-(2,4-dichlorophenyl)-1,2,3,4-tetrahydropyrimido[1,2-a]benzimidazol-6-yl](cyclopropyl)methanol] yielded a melting point of 223 to 224 °C. Further, on human CRF1 receptor, the IC50 was below 1 µM.

For the molecule `CCC(CC)c1ccc(Cl)c2nc3n(c12)CCCCN3c1cc(C)cc2c1ncn2C` [Example 230, 10-Chloro-1-(1,6-dimethyl-1H-benzimidazol-4-yl)-7-(1-ethylpropyl)-2,3,4,5-tetrahydro-1H-[1,3]diazepino[1,2-a]benzimidazole], the melting point lay within 259 to 260 °C. In addition, the IC50 at human CRF1 receptor was below 1 µM.

Regarding `CCCC(OC)c1ccc(Cl)c2nc3n(c12)CCCN3c1c(C)cc(Cl)cc1Cl` (centres unmarked) [Example 141, 9-Chloro-1-(2,4-dichloro-6-methylphenyl)-6-(1-methoxybutyl)-1,2,3,4-tetrahydropyrimido[1,2-a]benzimidazole], the melting point is 151 to 152 °C. Moreover, the IC50 at human CRF1 receptor was below 1 µM.

In the case of `CCC(OC)c1ccc(Cl)c2nc3n(c12)CCCN3c1ccc(Cl)cc1C(F)(F)F` (centres unmarked) [Example 133, 9-Chloro-1-[4-chloro-2-(trifluoromethyl)phenyl]-6-(1-methoxypropyl)-1,2,3,4-tetrahydropyrimido[1,2-a]benzimidazole], the melting point fell in the range of 202 to 203 °C. Besides, on human CRF1 receptor, the IC50 is below 1 µM.

Take `Cc1nc(C(C)C)nc(C)c1N1CCCn2c1nc1c(Cl)ccc(C(OC(F)F)C(F)(F)F)c12` (centres unmarked) [Example 214, 9-Chloro-6-[1-(difluoromethoxy)-2,2,2-trifluoroethyl]-1-[4,6-dimethyl-2-(1-methylethyl)pyrimidin-5-yl]-1,2,3,4-tetrahydropyrimido[1,2-a]benzimidazole]: the melting point lay in the range of 204 to 206 °C. Further, the IC50 on human CRF1 receptor is below 1 µM.

`CCC(CC)c1ccc(Cl)c2nc3n(c12)CCCCN3c1ccc(C(=O)N(C)C)cc1C` [Example 50, 4-[10-Chloro-7-(1-ethylpropyl)-2,3,4,5-tetrahydro-1H-[1,3]diazepino[1,2-a]benzimidazol-1-yl]-N,N,3-trimethylbenzamide] returned a melting point of 113 to 114 °C. In addition, on human CRF1 receptor, the IC50 was below 1 µM.
